Assay results from the SangsterLogP compilation.

Experiments:
[1] = method code G-HPLC, from DOI: 10.1021/je00030a025
[2] = method code G-GLC, from DOI: 10.1021/je00030a025

CC(=O)OCCBr
logP [1]: 1.11

CCCCCCCCl
logP [2]: 4.15

C=CCCBr
logP [1]: 2.53

CCCCCCCC
logP [2]: 5.18

C#CCCCC
logP [2]: 2.73

C=CCCCCC
logP [2]: 3.99

Fc1cccc(CCl)c1
logP [1]: 2.77

CCCCCCCI
logP [2]: 4.7

CCC(=O)CC
logP [2]: 0.99

CCCCCCCO
logP [2]: 2.57

CCCCCCCCBr
logP [2]: 4.89

CCCCCc1ccccc1
logP [1]: 4.9

CCCCCCCC(C)=O
logP [1]: 3.18

ClCCCBr
logP [2]: 2.18

C=CCCCCCCC
logP [2]: 5.15

O=Cc1ccco1
logP [1]: 0.52

Fc1ccccc1CCl
logP [2]: 2.67

CCCCCCC(C)=O
logP [1]: 2.76

CCCCCCBr
logP [2]: 3.8
